Test results from US9474780B2, “GIP and GLP-1 co-agonist compounds” (Eli Lilly and Company, priority 2015, dated 2016).

Target: T1, GIP receptor (Mus musculus, UniProt Q0P543)
T1 construct: endogenous in cells; host or cells: GLUTag cells (murine enteroendocrine line)
T1 sequence (Q0P543 19-460): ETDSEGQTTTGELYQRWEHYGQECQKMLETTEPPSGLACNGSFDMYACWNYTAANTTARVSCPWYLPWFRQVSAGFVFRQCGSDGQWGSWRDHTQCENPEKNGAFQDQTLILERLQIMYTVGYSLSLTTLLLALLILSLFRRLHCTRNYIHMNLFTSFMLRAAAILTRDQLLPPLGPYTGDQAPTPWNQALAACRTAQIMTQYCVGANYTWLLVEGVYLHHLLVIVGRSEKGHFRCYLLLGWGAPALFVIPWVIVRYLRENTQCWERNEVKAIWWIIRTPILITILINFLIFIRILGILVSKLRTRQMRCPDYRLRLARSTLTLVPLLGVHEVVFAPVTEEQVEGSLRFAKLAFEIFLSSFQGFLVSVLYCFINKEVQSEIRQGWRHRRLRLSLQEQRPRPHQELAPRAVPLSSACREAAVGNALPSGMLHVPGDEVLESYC
Experiment: Intracellular cAMP in GLUTag incretin-secreting cells
Assay type: cell-based, murine
Details: 0.001-3 μM
Method: On the day of the assay, media is decanted from cells and 50 μl EBSS Buffer (0.1% BSA, 2 mM glucose and 0.25 mM IBMX) containing a range of compound concentrations (0.001-3 μM) is added to cells. The plate is incubated at 37° C. for one hour and cAMP levels determined using Cisbio Dynamic 2 cAMP HTRF kit (Bedford, Mass.). 25 μl of anti-cAMP cryptate and 25 μl cAMP d2 is added to each well and plates incubated for one hour at room temperature. […] Data is analyzed with GraphPad using a 4-parameter non-linear logistic algorithm

CC[C@H](C)[C@H](NC(=O)[C@H](Cc1ccccc1)NC(=O)[C@H](CCC(=O)O)NC(=O)[C@H](CCCCN)NC(=O)[C@H](C)NC(=O)[C@H](C)NC(=O)[C@H](CCC(N)=O)NC(=O)CNC(=O)[C@H](CCC(=O)O)NC(=O)[C@H](CC(C)C)NC(=O)[C@H](Cc1ccc(O)cc1)NC(=O)[C@H](CO)NC(=O)[C@H](CO)NC(=O)[C@@H](NC(=O)[C@H](CC(=O)O)NC(=O)[C@H](CO)NC(=O)[C@@H](NC(=O)[C@H](Cc1ccccc1)NC(=O)[C@@H](NC(=O)CNC(=O)[C@H](CCC(=O)O)NC(=O)[C@H](C)NC(=O)[C@@H](N)Cc1c[nH]cn1)[C@@H](C)O)[C@@H](C)O)C(C)C)C(=O)N[C@@H](C)C(=O)N[C@@H](Cc1c[nH]c2ccccc12)C(=O)N[C@@H](CC(C)C)C(=O)N[C@H](C(=O)N[C@@H](CCCCN)C(=O)NCC(=O)N[C@@H](CCCNC(=N)N)C(N)=O)C(C)C [GLP-1,7-36-NH2]
cAMP accumulation in GLUTag cells: fails to induce any changes in cAMP at all concentrations tested
